According to a melting point compilation (Tetko et al.; mined from patent text by program, amines drawn as free bases though some values may be those of a salt):

Row | Compound | melting point [°C]
1 | c1ccc(-c2ccc(Nc3nccc(-c4ccc(-c5ccc(N(c6ccccc6)c6ccccc6)cc5)cc4)n3)cc2)cc1 | > 300
2 | N#Cc1nn(-c2c(Cl)cc(C(F)(F)F)cc2Cl)c(N)c1-c1cccc(Cl)c1 | 161 to 162
3 | CCCC[C@H](NC(=O)[C@H](CC(C)C)NC(=O)OCc1ccccc1)C(=O)CCCc1ccco1 | 62 to 64
4 | COc1c(Cl)nc(C(=O)O)c(Cl)c1N | 154 to 156
5 | C=CC(=O)Oc1ccc(C(=O)c2ccccc2)cc1 | 44 to 46
6 | CN1C(=O)CC[C@]2(C)c3ccc(-c4cccc5cccnc45)cc3CC[C@@H]12 | 205 to 207
7 | CC(C)N(c1cccc2cc(C(N)=S)[nH]c12)S(=O)(=O)c1cccs1 | 204 to 205
8 | N=C(Nc1cc(NC(=O)/C=C/c2ccccc2Cl)cc(C(F)(F)F)c1)c1cccs1 | 206 to 208
9 | CN1CCC(Cn2nc(-c3c(-c4ccccc4)nn4ccccc34)ccc2=O)CC1 | 180 to 181
10 | Cc1ccc(S(=O)(=O)OCC2CCN(C(c3ccccc3)(c3ccccc3)c3ccccc3)CC2)cc1 | 192
11 | COc1ccc(C(=O)Nc2ccccc2)c(NS(=O)(=O)c2ccc([N+](=O)[O-])cc2)c1 | 224 to 227
12 | CCOc1ccc(-c2nc(O)c(-c3ccccc3)s2)cc1 | 214 to 216
13 | O=C1C(=O)c2ccccc2C2=C1SCC1(CCN(C(=O)c3cccc([N+](=O)[O-])c3)CC1)O2 | 160 to 162
14 | ClC1=NCc2c(-c3noc(C4CC4)n3)ncn2-c2ccc(Cl)cc21 | 200
15 | CC(=O)NC1COc2c(C)ccc(N)c2C1=O (stereo not given) | 178 to 180
16 | O=[N+]([O-])c1nn(-c2c(Cl)cc(C(F)(F)F)cc2Cl)cc1S(=O)C(F)(F)F (stereo not given) | 124 to 130
17 | COc1cc(C)cc(-c2nn(CC#N)cc2-c2ccnc(S(C)(=O)=O)n2)c1 | 238
18 | Cc1cc(/C=C/C(c2cc(Cl)cc(Cl)c2)C(F)(F)F)ccc1C(=O)O (stereo not given) | 142 to 143
19 | CSc1nnc2c(=O)c3ccc(Cl)cc3ccn12 | 254 to 255
20 | Cn1nc(-c2c(F)cccc2Cl)nc1-c1ccc(Cl)nc1 | 118 to 120

Row | Compound | melting point [°C]
21 | CC(=O)Nc1cnc(-c2ccccc2)[nH]c1=O | 281 to 282
22 | CC(=O)Nc1cccc(-c2ccc(OC[C@H](O)CCc3cccnc3)cc2)c1 | 110 to 113
23 | CCOC(=O)c1cc(Br)c2oc(C)c(C)c2c1 | 110 to 111
24 | CC(=NNC(=N)N)c1cccc(OCc2ccc3ccccc3n2)c1 | 57 to 59
25 | CCS(=O)(=O)N(C)C1CC(C)(C)Oc2ccc(OCc3ccccc3)cc21 (stereo not given) | 91 to 93
26 | COc1ccc2c3c1C(=O)CC3CCO2 (stereo not given) | 122 to 124
27 | COC(=O)Cc1ccccc1NS(C)(=O)=O | 73 to 75
28 | COC(=O)C1=C(C)NC(C)=C(C(=O)OCCc2ccc(OCC(O)CO)cc2)C1c1cccc([N+](=O)[O-])c1 (stereo not given) | 117 to 118
29 | CNC(=NS(C)(=O)=O)NCCSCc1nccc(NC(N)=NCC(F)(F)F)n1 | 148 to 149
30 | NN1CCN(Cc2c[nH]c3ccccc23)CC1 | 147 to 149
31 | NS(=O)(=O)c1cc2cc(N3CCOCC3)ccc2s1 | 155 to 156
32 | COc1ccc(CNc2nc(N(C)CCO)ncc2C(=O)c2cc(OC)c(OC)c(OC)c2)cc1Cl | 166 to 168
33 | Nc1ccc2c(c1N)Cc1ccccc1-2 | 240 to 243
34 | COC(=O)c1ccc(CCc2nc(-c3ccccc3)c(C)s2)cc1 | 52 to 53
35 | Cc1nn2ccc3c(c2c1CO)CCO3 | 173 to 174
36 | CCC(O)(c1ccc(O)cc1)c1ccc(F)cc1 (stereo not given) | 125 to 126
37 | O=c1[nH]c(=S)[nH]c2c1cnn2CC(O)c1ccccc1 (stereo not given) | 264 to 265
38 | CCn1cc(C(=O)NCCc2ccccc2)c(=O)c2cnc(N3CCCC3)nc21 | 178 to 180
39 | O=C1OC(OC(=O)c2cccnc2Nc2cccc(C(F)(F)F)c2)c2ccccc21 (stereo not given) | 159 to 162
40 | COc1cc(N(C)C(=O)CN2CCN(C)CC2)ccc1N | 115 to 118
